The values below come from patent US7893085B2, “Aza-benzothiophenyl compounds and methods of use” (Genentech, Inc, priority 2006, dated 2011).

The subject of test [1] is HCT116 human colorectal carcinoma or A375 human malignant melanoma cells. Briefly: Cell proliferation assay (CellTiter-Glo). Type of test: cell-based. To be noted: in either one of the cell lines (HCT116, A375), 72 h. On the procedure: Compounds are tested in a cell proliferation assay using the following cell lines:
HCT116 human colbrectal carcinoma (ATCC)
(§1) A375 human malignant melanoma (ATCC)
Both cell lines are maintained in DMEMIF12 (1:1) media (Gibco) supplemented with 10% FCS at 37° C. in a 5% CO2 humidified incubator.
Cells are seeded in 96-well plates at 2,000 cells/well and after 24 hours they are exposed to different concentrations of compounds in 0.83% DMSO. Cells are grown for a further 72 h, and an equal volume of CellTiter-Glo reagent (Promega) is added to each well. This lyses the cells and generates a luminescent signal proportional to the amount of ATP released (and therefore proportional to the number of cells in the well) that can be detected using a multiwell luminometer.
The EC50 is defined as the concentration at which a given compound achieves 50% inhibition of control. EC50 values are calculated using the XLfit software package (version 2.0.5).
(In ATP-based viability assays light output follows the ATP content of the culture.)

For test [2], the system named is cellular p-ERK in HCT116 or A375 cells. Briefly: Phospho-ERK cell-based assay (ELISA). To be noted: Homo sapiens; in either one of the cell lines (HCT116, A375); 2 h or 24 h. How it is done:
Compounds are tested in a cell-based phospho-ERK ELISA using the following cell lines:
HCT116 human colorectal carcinoma (ATCC)
as §1
Both cell lines are maintained in DMEM/F12 (1:1) media (Gibco) supplemented with 10% FCS at 37° C. in a 5% CO2 humidified incubator.
Cells are seeded in 96-well plates at 2,000 cells/well and after 24 h they are exposed to different concentrations of compounds in 0.83% DMSO. Cells are grown for a further 2 h or 24 h, fixed with formaldehyde (2% final) and permeabilised with methanol. Following blocking with TBST-3% BSA, fixed cells are incubated with primary antibody (anti-phospho ERK from rabbit) over-night at 4° C. Cells are incubated with Propidium Iodide (DNA fluorescent dye) and detection of cellular p-ERK is performed using an anti-rabbit secondary antibody conjugated to the fluorescent Alexa Fluor 488 dye (Molecular probes). The fluorescence is analysed using the Acumen Explorer (lTP Labtech), a laser-scanning microplate cytometer, and the Alexa Fluor 488 signal is normalised to the PI signal (proportional to cell number).
The EC50 is defined as the concentration at which a given compound achieves a signal half way between the baseline and the maximum response. EC50 values are calculated using the XLfit software package (version 2.0.5).
For orientation: In an ELISA, binding on a coated surface is turned into a signal by an enzyme label.

As a reminder, the EC50 is the concentration at which the effect is half-maximal. Lower therefore signals greater potency. Consider `O=C(NOC[C@H](O)CO)c1sc2ccncc2c1Nc1ccc(I)cc1F` [Example 5, 3-(2-Fluoro-4-iodo-phenylamino)-thieno[3,2-c]pyridine-2-carboxylic acid ((R)-2,3-dihydroxy-propoxy)-amide], for which the EC50 in test [1] and in test [2] was under 10 µM throughout.

`O=C(NOCCO)c1sc2ccncc2c1Nc1ccc(I)cc1F` [Example 10, 3-(2-Fluoro-4-iodo-phenylamino)-thieno[3,2-c]pyridine-2-carboxylic acid (2-hydroxyethoxy)-amide]: the EC50 in test [1] and in test [2] was under 10 µM throughout.

In test [2], `O=C(NOCCO)c1sc2c(F)cncc2c1Nc1ccc(I)cc1F` [Example 11, 7-Fluoro-3-(2-fluoro-4-iodo-phenylamino)-thieno[3,2-c]pyridine-2-carboxylic acid (2-hydroxy-ethoxy)-amide] returned an EC50 of under 10 µM.

As for `CSc1ccc(Nc2c(C(=O)NOCCO)sc3ccncc23)c(F)c1` [Example 12, 3-(2-Fluoro-4-methylsulfanyl-phenylamino)-thieno[3,2-c]pyridine-2-carboxylic acid (2-hydroxy-ethoxy)-amide], the EC50 in test [2] was under 10 µM.
